Measurements reported in patent publication US7572799B2, “Pyrazolo[4,3-d]pyrimidines as Phosphodiesterase Inhibitors” (Pfizer Inc, priority 2003, dated 2009).

Molecular target: PDE-5 (UniProt O76074)
Assay: In vitro PDE inhibitory activity against PDE5 (batch method or scintillation proximity assay)
Format: biochemical, human
Details: representative compounds, read-out: IC50
Excerpt: The compounds of the invention are inhibitors of cyclic guanylate monophosphate (cGMP)-specific phosphodiesterase type 5 (PDE-5 inhibitors).
The required PDE enzymes can be isolated from a variety of sources, including human corpus cavernosum, human and rabbit platelets, human cardiac ventricle, human skeletal muscle and bovine retina, essentially by a modification of the method of Thompson, W J et al.; Biochemistry 18(23), 5228-5237, 1979, as described by Ballard S A et al.; J. Urology 159(6), 2164-2171, 1998. In particular, cGMP-specific PDE5 and cGMP-inhibited cAMP PDE3 can be obtained from human corpus cavernosum tissue, human platelets or rabbit platelets; cGMP-stimulated PDE2 was obtained from human corpus cavernosum; calcium/calmodulin (Ca/CAM)-dependent PDE1 from human cardiac ventricle; cAMP-specific PDE4 from human skeletal muscle; and photoreceptor PDE6 from bovine retina. Phosphodiesterases 7-11 can be generated from full length human recombinant clones transfected into SF9 cells.
Assays can be performed either using a modification of the “batch”method of Thompson W J and Appleman M M; Biochemistry 10(2), 311-316, 1971, essentially as described by Ballard S A et al.; J. Urology 159(6), 2164-2171, 1998, or using a scintillation proximity assay for the direct detection of [^3H]-labelled AMP/GMP using a modification of the protocol described by Amersham plc under product code TRKQ7090/7100. In summary, for the scintillation proximity assay the effect of PDE inhibitors was investigated by assaying a fixed amount of enzyme in the presence of varying inhibitor concentrations and low substrate, (cGMP or cAMP in a 3:1 ratio unlabelled to [^3H]-labeled at a concentration of ˜⅓ Km, or less) such that IC50≅Ki. The final assay volume was made up to 100 μl with assay buffer [20 mM Tris-HCl pH 7.4, 5 mM MgCl2, 1 mg/ml bovine serum albumin]. Reactions were initiated with enzyme, incubated for 30-60 min at 30° C. to give <30% substrate turnover and terminated with 50 μl yttrium silicate SPA beads (containing 3 mM of the respective unlabelled cyclic nucleotide for PDEs 9 and 11).

SMILES: CCOCCn1nc(C(=O)O)c2nc(N(C)C(C)C)nc(Nc3ccnc(C)n3)c21 [Example 72]
- IC50: 59.2 nM

SMILES: CCOCCn1nc(C(=O)OCC)c2nc(N(C)C(C)C)nc(Nc3cc(C)ccn3)c21 [Example 9]
- IC50: 0.075 nM

SMILES: CCCN(C)c1nc(Nc2cc(C)ccn2)c2c(n1)c(C(=O)O)nn2CCOCC [Example 15]
- IC50: 1.84 nM

SMILES: CCCOCCn1nc(C(=O)NS(C)(=O)=O)c2nc(N(C)C(C)C)nc(Nc3cc(C)ccn3)c21 [Example 184, 5-[Isopropyl(methyl)amino]-7-[(4-methylpyridin-2-yl)amino]-N-(methylsulfonyl)-1-(2-propoxyethyl)-1H-pyrazolo[4,3-d]pyrimidine-3-carboxamide]
- IC50: 0.5 nM

SMILES: CCOCCn1nc(C(=O)O)c2nc(N(C)C(C)CC)nc(Nc3cc(C)ccn3)c21 (stereo not shown) [Example 50]
- IC50: 1.66 nM

SMILES: CCN(CC)c1nc(Nc2cc(C)ccn2)c2c(n1)c(C(=O)O)nn2C[C@@H](C)OC [Example 66]
- IC50: 13.5 nM

SMILES: CCCOCCn1nc(C(=O)O)c2nc(N(C)C(C)C)nc(Nc3cc(C)ccn3)c21 [Example 19]
- IC50: 2.43 nM

SMILES: CCOCCn1nc(C(=O)O)c2nc(N[C@@H](C)CC)nc(Nc3cc(C)ccn3)c21 [Example 55]
- IC50: 2.6 nM

SMILES: Cc1cc(Nc2nc(N(C)C(C)C)nc3c(C(=O)O)nn(CCOCC(F)(F)F)c23)ccc1F [Example 139]
- IC50: 0.071 nM

SMILES: Cc1ccnc(Nc2nc(N(C)C(C)C)nc3c(C(=O)NS(C)(=O)=O)nn(CCOCC(F)(F)F)c23)c1 [Example 179, 5-[Isopropyl(methyl)amino]-7-[(4-methylpyridin-2-yl)amino]-N-(methylsulfonyl)-1-[2-(2,2,2-trifluoroethoxy)ethyl]-1H-pyrazolo[4,3-d]pyrimidine-3-carboxamide]
- IC50: 0.914 nM

SMILES: Cc1ccnc(Nc2nc(N(C)C(C)C)nc3c(C(=O)NS(C)(=O)=O)nn(CCOCCCF)c23)c1 [Example 176]
- IC50: 0.17 nM

SMILES: CCOCCn1nc(C(=O)O)c2nc(N(C)CC)nc(Nc3cc(C)ccn3)c21 [Example 96]
- IC50: 3.65 nM

SMILES: CCOCCn1nc(C(=O)O)c2nc(N(C)CC)nc(Nc3cc(C)c(C)cn3)c21 [Example 40]
- IC50: 0.167 nM

SMILES: CCOCCn1nc(C(=O)O)c2nc(N(C)C(C)C)nc(Nc3cc(CC)ccn3)c21 [Example 36]
- IC50: 0.708 nM

SMILES: CCOCCn1nc(C(=O)O)c2nc(N(C)CC)nc(Nc3cc(C)ccc3F)c21 [Example 101]
- IC50: 8.45 nM

SMILES: CCCOCCn1nc(C(=O)NS(C)(=O)=O)c2nc(N(C)CC)nc(Nc3cc(C)ccn3)c21 [Example 171]
- IC50: 1.21 nM

SMILES: CCN(C)c1nc(Nc2cc(C)ccn2)c2c(n1)c(C(=O)O)nn2CCOC [Example 119]
- IC50: 11.5 nM

SMILES: CCN(C)c1nc(Nc2cc(C)ccn2)c2c(n1)c(C(=O)O)nn2CCOCC1CC1 [Example 109]
- IC50: 9.7 nM

SMILES: CCN(CC)c1nc(Nc2cc(C)ccn2)c2c(n1)c(C(=O)O)nn2CCOCC(F)(F)F [Example 128, 5-(Diethylamino)-7-[(4-methylpyridin-2-yl)amino]-1-[2-(2,2,2-trifluoroethoxy)ethyl]-1H-pyrazolo[4,3-d]pyrimidine-3-carboxylic acid]
- IC50: 3.94 nM

SMILES: Cc1ccnc(Nc2nc(N(C)C(C)C)nc3c(C(=O)O)nn(CCOCC4CC4)c23)c1 [Example 108]
- IC50: 18.3 nM

SMILES: CCOCCn1nc(C(=O)O)c2nc(N(C)C)nc(Nc3cc(C)ccc3F)c21 [Example 100]
- IC50: 3.48 nM

SMILES: CCOCCn1nc(C(=O)O)c2nc(N(C)C(C)C)nc(Nc3ccccc3F)c21 [Example 104]
- IC50: 9.69 nM

SMILES: CCOCCn1nc(C(=O)O)c2nc(N(C)CC)nc(Nc3ccnc(C)n3)c21 [Example 73]
- IC50: 52.3 nM

SMILES: Cc1ccnc(Nc2nc(N3CCCC3C)nc3c(C(=O)O)nn(CCOCC(F)(F)F)c23)c1 (stereo not shown) [Example 129, 7-[(4-Methylpyridin-2-yl)amino]-5-(2-methylpyrrolidin-1-yl)-1-[2-(2,2,2-trifluoroethoxy)ethyl]-1H-pyrazolo[4,3-d]pyrimidine-3-carboxylic acid]
- IC50: 7.78 nM

SMILES: CCOCCn1nc(-c2nc(=O)o[nH]2)c2nc(N(C)CC)nc(Nc3cc(C)ccn3)c21 [Example 76]
- IC50: 0.465 nM
